Patent US20050130232A1, “Methods of screening for compounds that modulate hormone receptor activity” (Allergan, Inc., priority 2001, published 2005)

Experiments:
Assay type in all cases: cell-based
[1] = tested on: MAP kinase (MAPK or ERK1/2); assay: MAP kinase phosphorylation in cells treated with RXR agonist (anti-phospho-MAPK immunoblot)
Method: Cells were lysed directly with 1×SDS sample buffer and the cell lysates were separated by SDS-PAGE and immunoblotted with anti-phospho-MAPK. […] Differentiated 3T3 adipocytes were starved, stimulated, and manipulated as described above. […] Detection of MAP kinase phosphorylation was performed as described above with anti-phospho-MAPK from Promega.
MAP kinase (MAPK or ERK1/2) is activated by phosphorylation on Thr and Tyr residues of a TEY motif by the dual-specific MAP kinase kinase (MEK). […] As further shown in FIG. 3C, the response was dose-dependent (0.01-100 nM), with maximal stimulation at 0.1 nM.

[2] = target: T1, protein kinase A activity associated with RXRα (Homo sapiens, UniProt P19793); assay: Protein kinase A activity in anti-Flag immunoprecipitates of PH-RXRα or RXRα transfected HEK 293 cells, synthetic peptide substrate; details: Flag-RXRα lacking pleckstrin homology domain, 10^-7 M, substrate LRRASLG, vs control vehicle
T1 sequence (P19793 1-462): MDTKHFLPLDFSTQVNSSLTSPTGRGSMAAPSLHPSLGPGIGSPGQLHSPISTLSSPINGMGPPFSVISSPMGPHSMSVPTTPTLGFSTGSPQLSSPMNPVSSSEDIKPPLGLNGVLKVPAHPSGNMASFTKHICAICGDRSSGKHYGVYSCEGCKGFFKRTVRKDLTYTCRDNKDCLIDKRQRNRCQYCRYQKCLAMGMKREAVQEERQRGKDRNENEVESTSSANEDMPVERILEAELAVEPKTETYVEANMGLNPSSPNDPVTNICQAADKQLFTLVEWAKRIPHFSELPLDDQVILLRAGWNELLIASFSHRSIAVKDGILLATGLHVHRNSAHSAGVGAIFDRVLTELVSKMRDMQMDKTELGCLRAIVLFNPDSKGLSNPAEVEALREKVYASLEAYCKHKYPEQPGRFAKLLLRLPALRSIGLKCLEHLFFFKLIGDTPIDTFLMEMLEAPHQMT
Method: 293 cells were transfected with PH-RXRα. Sample 1: 0.1% DMSO (10 minutes). […] Sample 3: 0.1% DMSO (30 minutes).
Sample 1: 0.1% DMSO (10 minutes). […] Sample 3: 0.1% DMSO (30 minutes). […] Sample 5: No immunoprecipitate.
Sample 1: 0.1% DMSO. […] Sample 3: 0.1% DMSO with PKA inhibitor. […] Sample 5: 0.1% DMSO.
Following immunoprecipitation with anti-Flag antibody, the synthetic PKA substrate, LRRASLG (SEQ ID NO: 59), was added to the immunoprecipitate along with γ-ATP.
HEK 293 were cultured and transfected essentially as described above. Immunoprecipitates were prepared using the anti-Flag antibody, M2, as described above. Assays for protein kinase A activity were performed as follows. Immunoprecipitated complexes were resuspended in 40 μl of Kinase Assay Buffer (30 mM Tris-HCl, pH 7.4 and 10 mM MgCl2). Kinase reactions were initiated by addition of 10 μl of 500 μM synthetic peptide LRRASLG (SEQ ID NO: 59) or […] (SEQ ID NO: 60) prepared by Upstate Biotechnology (Lake Placid, N.Y.) and addition of 50 μM [γ-^32P]ATP (10 μCi) to the immune-complexes. […]
Incorporated ^32P was separated from free label by applying the reaction mixture onto P81 phosphocellulose paper and subsequently washing the paper three times with 0.75% phosphoric acid and once with acetone. Protein kinase reaction samples were analyzed in a scintillation counter to determine the amount of ^32P-incorporation.

[3] = tested on: protein kinase A activity associated with RXRα (Homo sapiens); assay: PKA activity in S293 cells overexpressing the catalytic subunit of PKA
Text: Sample 1: No ligand; immunoprecipitation with beads only. […] Sample 3: No ligand; immunoprecipitation with anti-FLAG antibody. […] Sample 5: No ligand; immunoprecipitation with beads only. […] Sample 7: No ligand; immunoprecipitation with anti-PKA antibody.
S293 cells (HEK293 cells stably overexpressing RXRα) were transfected with the pFC-PKA expression vector encoding the catalytic subunit of protein kinase A and with Flag-tagged PH-RXRα essentially as described above. This commercially available expression vector expresses the catalytic subunit of murine protein kinase A under control of the CMV promoter (Stratagene; San Diego, Calif.).

[4] = target: association between RXRα and PKA (Homo sapiens, UniProt P19793); assay: Co-immunoprecipitation of RXRα and catalytic subunit of PKA; details: cells overexpressing PKA catalytic subunit, 10^-7 M
Method: Left panel: Cells were immunoprecipitated with anti-FLAG antibody, and the immunoprecipitates analyzed by SDS-PAGE and blotting with anti-PKA antibody. Right panel: Cells were immunoprecipitated with anti-PKA antibody, and the immunoprecipitates analyzed by SDS-PAGE and blotting with anti-FLAG antibody. […] PKA I and PKC I indicate inhibitors of PKA and PKC, respectively.
Immunoprecipitations with anti-Flag antibody were performed as described above. Immunoprecipitations with anti-PKA antibody (Transduction Laboratories; Lexington, Kentucky) were performed according to manufacturer's protocol. Western blotting with anti-PKA antibody and anti-Flag antibody also were performed according to manufacturer's protocol.

RXRα = target: T2, RXRα (Homo sapiens, UniProt P19793); assay: In vivo metabolic labeling with [32P]orthophosphate of Flag-RXR transfected HEK 293 cells; set-up: expressed in transfected cells; host or cells: HEK 293; details: [32P]orthophosphate labeling, ligand 10 minutes
T2 sequence (P19793 1-462): T1 sequence (P19793 1-462)
Text: (A) AGN194204-dependent protein kinase activity in Flag-RXR immunocomplexes, which were immunoprecipitated from transfected cells using antibody against the “Flag” epitope tag fused to the RXR receptor. […] Total cell lysates were immunoprecipitated with anti-Flag antibody (M2). Aliquots of the immunocomplexes were used for the in vitro kinase reaction with [γ-^32P]ATP and separated on SDS-PAGE. Phosphorylated proteins were detected by autoradiography (top panel). Additional aliquots of the immunocomplexes were subjected to immunoblotting with polyclonal anti-RXR antisera (D20; bottom panel). (B) Phosphoamino acid analysis. Flag-RXR and the 160-kDa protein were phosphorylated in vitro and separated on SDS-PAGE as described above, then transferred onto PVDF membrane, detected by autoradiography, and cut out for hydrolysis with acid (6 N HCl). The phosphorylated amino acids and standards (P-Ser, P-Thr, and P-Tyr) were separated by thin-layer chromatography. Positions of the standards P-Ser, P-Thr, and P-Tyr were visualized by ninhydrin staining and are indicated by arrows. (C) In vivo metabolic labeling of transfected HEK 293 cells. […] Cells were washed with phosphate-free medium and starved for 90 minutes before incubation with [^32P]orthophosphate for another 4 hours. […] Phosphorylated proteins were detected by autoradiography. […]

SMILES: CC(/C=C/[C@@H]1C[C@]1(C)c1ccc2c(c1)C(C)(C)CCC2(C)C)=C\C(=O)O [AGN194204]
- duration of increased MAP kinase phosphorylation [1]: about 20 minutes
- phosphorylation of MAP kinase ([1]; 3T3-L1 fibroblasts): increased phosphorylation of MAP kinase
- concentration of maximal stimulation of MAP kinase phosphorylation ([1]; 3T3-L1 fibroblasts, 5 minutes): 0.1 nM
- dose-dependent range of MAP kinase response ([1]; 3T3-L1 fibroblasts, 5 minutes): 10 to 100000 pM
- time to increased MAP kinase phosphorylation ([1]; after treatment): ≤ 5 min
- phosphorylation of MAP kinase ([1]; differentiated 3T3 adipocytes): increased phosphorylation of MAP kinase
- protein kinase A activity associated with RXRα [2]: significantly enhanced
- protein kinase A activity in immunoprecipitates ([3]; immunoprecipitation with anti-Flag antibody): dramatic increase
- protein kinase A activity in immunoprecipitates ([3]; immunoprecipitation with anti-PKA antibody): only a marginal ligand-dependent increase
- amount of protein kinase A associated with RXRα [4]: did not increase the amount of protein kinase A associated with receptor
- in vivo phosphorylation of RXRα (RXRα): stimulated
